Data: patent US9456599B2, “Adjuvants” (SYNGENTA LIMITED, priority 2012, dated 2016)

Experiments:
Septoria tritici [1] = experiment: Septoria tritici on wheat, epoxiconazole with compound E (Example 9); format: in vivo
Experimental: (§1) Wheat plants were inoculated with the fungus Septoria tritici. Four days after inoculation the plants were sprayed with a diluted suspension concentrate formulation of the fungicide epoxiconazole at rates of 3, 10, 30 and 100 mg of the fungicide per liter of spray solution, using a laboratory track sprayer which delivered the spray at a rate of 200 liters per hectare. Spray tests were also carried out with a diluted suspension concentrate additionally comprising the carbonate compound E (see Table 7) added to the spray solution at a rate of 0.1% v/v, based on the quantity of spray liquor. The leaves of the plants were assessed visually 12 days after the spray application and the damage was expressed as the percentage of the leaf area infected. Each spray test was replicated four times across the four application rates.
(§2) The results shown in Table 14 below are mean averages over the four rates of epoxiconazole and the four replicates, and are compared to the efficacy of epoxiconazole in the absence of an adjuvant, and epoxiconazole in the presence of oleyl ethoxylate 20EO butyl end capped adjuvant used as a standard adjuvant for comparative purposes (at 0.1% by volume).

[2] = system: Setaria viridis, Chenopodium album, Abutilon theophrasti and Digitaria sanguinalis; experiment: Glasshouse spray test, nicosulfuron with carbonates A-E (Example 5), mean over four plant species; format: in vivo; conditions: for Adjuvant effect on efficacy of nicosulfuron (in words): 0.2% v/v carbonate with nicosulfuron, Tables 8 and 9; for Mean % Phytotoxicity: Atplus 411F 0.5% by volume, 22 days, mean over rates, replicates, four species
Experimental: (§3) Setaria viridis, Chenopodium album, Abutilon theophrasti and Digitaria sanguinalis seeds were sown into standard soil in pots and cultivated under controlled conditions in a glasshouse (at 24/18° C. day/night; 16 hours light; 65% humidity).
When the plants were at the vegetative stage of 3-4 leaves they were sprayed with an aqueous spray solution containing the herbicide nicosulfuron and 0.2% v/v of one of the carbonates A, B, C, D and E (see Table 7).
Each spray solution was applied with a cabinet tracksprayer with a flat fan nozzle (Teejet 11002VS) and an application volume of 200 liter/ha (at 2 bar). Nicosulfuron was applied at either 15 or 60 grams of pesticide per hectare.
(§4) The test plants were then grown on, in a glasshouse under controlled conditions (at 24/18° C. day/night; 16 hours light; 65% humidity) and watered twice a day. After 22 days the test was evaluated for general crop injury or phytotoxicity (100% equals total damage to a plant; 0% equals no damage to a plant).
(§5) The results shown in Table 8 below are mean averages over the two rates of nicosulfuron, the three replicates and the four plant species, and are compared to the efficacy of nicosulfuron in the absence of an adjuvant and nicosulfuron in the presence of the commercially available tank-mix adjuvant, Atplus411F® (at 0.5% by volume).

[3] = system: Avena fatua, Lolium perenne, Setaria viridis and Alopecurus myosuroides; experiment: Glasshouse spray test, pinoxaden with carbonates A-E (Example 7), mean over four plant species; format: in vivo; conditions: 0.2% v/v carbonate with pinoxaden, Tables 11 and 12
Experimental: Avena fatua, Lolium perenne, Setaria viridis and Alopecurus myosuroides seeds were sown into standard soil in pots and cultivated under controlled conditions in a glasshouse (at 20/16° C. day/night; 15 hours light; 65% humidity).
When the plants were at the vegetative stage of 2-3 leaves they were sprayed with an aqueous spray solution containing the herbicide pinoxaden and 0.2% v/v of one of the carbonates A, B, C, D and E (see Table 7).
The spray solution was applied with a cabinet tracksprayer with a flat fan nozzle (Teejet 11002VS) and an application volume of 200 liter/ha (at 2 bar). Pinoxaden was applied at either 7.5 or 15 grams of pesticide per hectare.
as §4, with “on.” for “on,”
The results shown in Table 11 below are mean averages over the two rates of pinoxaden, the three replicates and the four plant species, and are compared to the efficacy of pinoxaden in the absence of an adjuvant, and pinoxaden in the presence of tris(2-ethylhexyl)phosphate, used as a standard adjuvant for comparative purposes (at 0.2% by […] volume).

Septoria tritici [4] = experiment: Septoria tritici on wheat, isopyrazam with compound E (Example 8); format: in vivo; conditions: 0.1% v/v compound E with isopyrazam, Table 13
Experimental: as §1, with “isopyrazam” for “epoxiconazole”
as §2, with “13” for “14”, “isopyrazam” for “epoxiconazole”

Abutilon theophrasti [5] = experiment: Glasshouse post-emergence spray test, nicosulfuron with adjuvant (Example 1); format: in vivo; conditions: nicosulfuron 30 or 60 g/ha, adjuvant 0.2% by volume; mean over two rates, three replicates, 17 and 21 days
Experimental: as §3
(§6) When the plants were at the vegetative stage of 3-4 leaves they were sprayed with an aqueous spray solution containing the herbicide nicosulfuron and 0.2% v/v of one of the carbonates, B92-P-Carbonate, B92-B-Carbonate and B96-P-Carbonate (see Table 1).
(§7) Each spray solution was applied with a cabinet tracksprayer with a flat fan nozzle (Teejet 11002VS) and an application volume of 200 liter/ha (at 2 bar). Nicosulfuron was applied at either 30 or 60 grams of pesticide per hectare.
(§8) The test plants were then grown on, in a glasshouse under controlled conditions (at 24/18° C. day/night; 16 hours light; 65% humidity) and watered twice a day. After 17 and 21 days the test was evaluated for general crop injury (100% equals total damage to a plant; 0% equals no damage to a plant).
as §5, with “3” for “8”, “nicosulfuron,” for “nicosulfuron, the”, “two assessment timings,” for “four plant species,”, “0.2%” for “0.5%”

Chenopodium album [6] = experiment: as above; format: in vivo; conditions: nicosulfuron 30 or 60 g/ha, adjuvant 0.2% by volume; mean over two rates, three replicates, 17 and 21 days
Experimental: as §3, §6, §7, §8
as §5, with “3” for “8”, “nicosulfuron,” for “nicosulfuron, the”, “two assessment timings,” for “four plant species,”, “0.2%” for “0.5%”

Digitaria sanguinalis = experiment: as above; format: in vivo; conditions: nicosulfuron 30 or 60 g/ha, adjuvant 0.2% by volume; mean over two rates, three replicates, 17 and 21 days
Experimental: as §3, §6, §7, §8
as §5, with “3” for “8”, “nicosulfuron,” for “nicosulfuron, the”, “two assessment timings,” for “four plant species,”, “0.2%” for “0.5%”

Setaria viridis [7] = experiment: as above; format: in vivo; conditions: nicosulfuron 30 or 60 g/ha, adjuvant 0.2% by volume; mean over two rates, three replicates, 17 and 21 days
Experimental: as §3, §6, §7, §8
as §5, with “3” for “8”, “nicosulfuron,” for “nicosulfuron, the”, “two assessment timings,” for “four plant species,”, “0.2%” for “0.5%”

[8] = system: Setaria viridis, Chenopodium album, Abutilon theophrasti and Digitaria sanguinalis; experiment: Glasshouse post-emergence spray test, nicosulfuron with adjuvant (Example 1), mean across species; format: in vivo; conditions: nicosulfuron 30 or 60 g/ha, adjuvant 0.2% by volume; 17 and 21 days; Tukey HSD letter
Experimental: as §3, §6, §7, §8
as §5, with “3” for “8”, “nicosulfuron,” for “nicosulfuron, the”, “two assessment timings,” for “four plant species,”, “0.2%” for “0.5%”

[9] = system: Brachiaria plantaginea, Digitaria sanguinalis, Commelina benghalensis and Polygonum convulvulus; experiment: Glasshouse spray test, mesotrione with carbonates A-D (Example 6), mean over four plant species; format: in vivo; conditions: 0.2% v/v carbonate with mesotrione, Table 10
Experimental: Brachiaria plantaginea, Digitaria sanguinalis, Commelina benghalensis and Polygonum convulvulus seeds were sown into standard soil in pots and cultivated under controlled conditions in a glasshouse (at 24/18° C. day/night; 16 hours light; 65% humidity).
When the plants were at the vegetative stage of 2-4 leaves they were sprayed with an aqueous spray solution containing the herbicide mesotrione and 0.2% v/v of one of the carbonates A, B, C and D (see Table 7).
The spray solution was applied with a cabinet tracksprayer with a flat fan nozzle (Teejet 11002VS) and an application volume of 200 liter/ha (at 2 bar). Mesotrione was applied at either 30 or 60 grams of pesticide per hectare.
as §4, with “25” for “22”
The results shown in Table 10 below are mean averages over the two rates of mesotrione, the three replicates and the four plant species and are compared to the efficacy of mesotrione in the absence of an adjuvant, and mesotrione in the presence of the commercially available tank-mix adjuvant, Tween 20 ®+Rhodasurf DA/630-E® (combined in a 2:1 ratio) at 0.5% by volume.

Abutilon theophrasti [10] = experiment: Glasshouse post-emergence spray test, fomesafen with adjuvant (Example 2); format: in vivo; conditions: fomesafen 60 or 120 g/ha, carbonate 0.2% v/v or Turbocharge 0.5% v/v; mean over two rates, three replicates, 14 and 21 days
Experimental: (§9) Setaria viridis, Chenopodium album, Abutilon theophrasti and Ipomea hederacea seeds were sown into standard soil in pots and cultivated under controlled conditions in a glasshouse (at 24/18° C. day/night; 16 hours light; 65% humidity).
(§10) When the plants were at the vegetative stage of 2-4 leaves they were sprayed with an aqueous spray solution containing the herbicide fomesafen and 0.2% v/v of one of the carbonates B92-P-Carbonate, B92-B-Carbonate and B96-P-Carbonate (see Table 1).
(§11) The spray solution was applied with a cabinet tracksprayer with a flat fan nozzle (Teejet 11002VS) and an application volume of 200 liter/ha (at 2 bar). Fomesafen was applied at either 60 or 120 grams of pesticide per hectare.
(§12) The test plants were then grown on, in a glasshouse under controlled conditions (at 24/18° C. day/night; 16 hours light; 65% humidity) and watered twice a day. After 14 and 21 days the test was evaluated for general crop injury (100% equals total damage to a plant; 0% equals no damage to a plant).
(§13) The results shown in Table 4 below are mean averages over the two rates of fomesafen, three replicates and the two assessment timings, and are compared to the efficacy of fomesafen in the absence of an adjuvant, and fomesafen in the presence of the commercially available tank-mix adjuvant, Turbocharge®, which was used at an application rate of 0.5% by volume of the spray tank.

Chenopodium album [11] = experiment: as above; format: in vivo; conditions: fomesafen 60 or 120 g/ha, carbonate 0.2% v/v or Turbocharge 0.5% v/v; mean over two rates, three replicates, 14 and 21 days
Experimental: as §9, §10, §11, §12, §13

Setaria viridis [12] = experiment: as above; format: in vivo; conditions: fomesafen 60 or 120 g/ha, carbonate 0.2% v/v or Turbocharge 0.5% v/v; mean over two rates, three replicates, 14 and 21 days
Experimental: as §9, §10, §11, §12, §13

COMBEN = experiment: as above; format: in vivo, Ipomea hederacea; conditions: fomesafen 60 or 120 g/ha, carbonate 0.2% v/v or Turbocharge 0.5% v/v; mean over two rates, three replicates, 14 and 21 days
[13] = system: Setaria viridis, Chenopodium album, Abutilon theophrasti and Ipomea hederacea; experiment: Glasshouse post-emergence spray test, fomesafen with adjuvant (Example 2), mean across species; format: in vivo; conditions: fomesafen 60 or 120 g/ha, carbonate 0.2% v/v or Turbocharge 0.5% v/v; 14 and 21 days; Tukey HSD letter
Experimental: as §9, §10, §11, §12, §13

Fc1ccc([C@]2(Cn3cncn3)O[C@H]2c2ccccc2Cl)cc1 (racemic) [Epoxiconazole]
Mean % infection (Septoria tritici [1]; wheat leaf area infected 12 days after spray, epoxiconazole 3, 10, 30 and 100 mg/l, adjuvant 0.1% by volume, mean over four rates, four replicates): 40.0%

Glycerol-(6EO-CO3- phenyl)3 [compound D]
Adjuvant effect on efficacy of nicosulfuron (in words) [2]: particularly effective as adjuvants for nicosulfuron

Oleyl 10EO-(CO3-2- ethylhexyl) [compound E]
Adjuvant effect on efficacy of nicosulfuron (in words) [2]: particularly effective adjuvant for nicosulfuron
Adjuvant effect on efficacy of pinoxaden (in words) [3]: effective as an adjuvant for pinoxaden
Effect on infection by S. tritici versus isopyrazam without adjuvant (in words) (Septoria tritici [4]): significant reduction in the percentage of infection by S. tritici
Effect on infection by S. tritici versus epoxiconazole without adjuvant (in words) (Septoria tritici [1]; 0.1% v/v compound E with epoxiconazole, Table 14): significant reduction in the percentage of infection by S. tritici

COc1cc(OC)nc(NC(=O)NS(=O)(=O)c2ncccc2C(=O)N(C)C)n1 [Nicosulfuron]
Mean percentage kill ABUTH (Abutilon theophrasti [5]): 48.3%
Mean percentage kill CHEAL (Chenopodium album [6]): 36.7%
Mean percentage kill DIGSA (Digitaria sanguinalis): 31.7%
Mean percentage kill SETVI (Setaria viridis [7]): 79.2%
Mean percentage kill, Mean across species [8]: 49.0 B %
Mean % Phytotoxicity ([2]; Table 8: nicosulfuron 15 or 60 g/ha, compounds A-D 0.2% by volume): 36.46%
Mean % Phytotoxicity ([2]; Table 9: nicosulfuron 15 or 60 g/ha, compound E 0.2% by volume): 28.3%

CCCCC(CC)COC(=O)OCC(COC(=O)OCC(CC)CCCC)OC(=O)OCC(CC)CCCC (stereo not drawn) [compound B, Glycerol-(CO3-2-ethylhexy1)3]
Adjuvant effect on efficacy of nicosulfuron (in words) [2]: increase the efficacy of nicosulfuron compositions
Adjuvant effect on efficacy of mesotrione (in words) [9]: particularly effective at increasing the efficacy of mesotrione compositions
Adjuvant effect on efficacy of pinoxaden (in words) [3]: most effective at increasing the efficacy of the pinoxaden composition

CS(=O)(=O)NC(=O)c1cc(Oc2ccc(C(F)(F)F)cc2Cl)ccc1[N+](=O)[O-] [Fomesafen]
Mean percentage kill ABUTH (Abutilon theophrasti [10]): 23.3%
Mean percentage kill CHEAL (Chenopodium album [11]): 58.3%
Mean percentage kill SETVI (Setaria viridis [12]): 19.2%
Mean percentage kill COMBEN (COMBEN): 15.0%
Mean percentage kill, Mean across species [13]: 29.0 C %

Glycerol-(6EO-CO3-2- ethylhexyl)3 [compound C]
Adjuvant effect on efficacy of nicosulfuron (in words) [2]: particularly effective as adjuvants for nicosulfuron

CCOC(=O)OCC(COC(=O)OCC)OC(=O)OCC [compound A, Glycerol-(CO3-ethyl)3]
Adjuvant effect on efficacy of nicosulfuron (in words) [2]: increase the efficacy of nicosulfuron compositions
Adjuvant effect on efficacy of mesotrione (in words) [9]: particularly effective at increasing the efficacy of mesotrione compositions
